What was measured:
[1] = molecular target: T1, GDP-bound KRAS protein (aa 1-169), containing both G12C and C118A amino acid substitutions (Homo sapiens, UniProt P01116, C118A/G12C); experiment: Coupled Nucleotide Exchange Assay (Table 15 conditions: 2 hours pre-incubation); assay type: biochemical; conditions: 2 hours compound pre-incubation (Table 15 conditions)
Description: (§1) For compounds in Table 15, the following assay conditions were employed:
Following compound pre-incubation, purified SOS protein (aa 564-1049) and GTP (Roche 10106399001) were added to the assay wells and incubated for an additional hour. […] The assay plates were then read on a PerkinElmer EnVision Multilabel Reader, using AlphaScreen® technology, and data were analyzed using a 4-parameter logistic model to calculate IC50 values.

[2] = tested on: Phosphorylation of ERK1/2 in A549 cells; experiment: Phospho-ERK1/2 MSD Assay, A549 (Table 15 conditions: 4 hours compound treatment); assay type: cell-based; conditions: Homo sapiens, A549, 4 h, EGF stimulation, read-out: p-ERK IC50 (A549)
Description: as §1
Phospho-ERK1/2 MSD Assay: MIA PaCa-2 (ATCC® CRL-1420™) and A549 (ATCC® CCL-185™) cells were cultured in RPMI 1640 Medium (ThermoFisher Scientific 11875093) containing 10% fetal bovine serum (ThermoFisher Scientific 16000044) and 1× penicillin-streptomycin-glutamine (ThermoFisher Scientific 10378016). Sixteen hours prior to compound treatment, MIA PaCa-2 or A549 cells were seeded in 96-well cell culture plates at a density of 25,000 cells/well and incubated at 37° C., 5% CO2. A compound dose-response titration was diluted in growth media, added to appropriate wells of a cell culture plate, and then incubated at 37° C., 5% CO2 for 4 hours. Following compound treatment, cells were stimulated with 10 ng/mL EGF (Roche 11376454001) for 10 min, washed with ice-cold Dulbecco's phosphate-buffered saline, no Ca^2+ or Mg^2+ (ThermoFisher Scientific 14190144), and then lysed in RIP A buffer (50 mM Tris-HCl pH 7.5, 1% Igepal, 0.5% sodium deoxycholate, 150 mM NaCl, and 0.5% sodium dodecyl sulfate) containing protease inhibitors (Roche 4693132001) and phosphatase inhibitors (Roche 4906837001). Cell lysates were stored frozen at −80° C. overnight. Phosphorylation of ERK1/2 in compound-treated lysates was assayed using Phospho-ERK1/2 Whole Cell Lysate kits (Meso Scale Discovery K151DWD) according to the manufacturer's protocol. Assay plates were read on a Meso Scale Discovery Sector Imager 6000, and data were analyzed using a 4-parameter logistic model to calculate IC50 values.

[3] = molecular target: T1, GDP-bound KRAS protein (aa 1-169), containing both G12C and C118A amino acid substitutions; experiment: Coupled Nucleotide Exchange Assay (Table 16 conditions: 5 min pre-incubation); assay type: biochemical; conditions: 5 min compound pre-incubation; SOS-mediated nucleotide exchange, AlphaScreen
Description: (§2) For compounds in Table 16, the following assay conditions were employed:
The assay plates were then read on a PerkinElmer EnVision Multilabel Reader, using AlphaScreen® technology, and data were analyzed using a 4-parameter logistic model to calculate IC50 values.

[4] = tested on: Phosphorylation of ERK1/2 in MIA PaCa-2 cells; experiment: Phospho-ERK1/2 MSD Assay, MIA PaCa-2 (Table 16 conditions: 2 hours compound treatment); assay type: cell-based; conditions: MIA PaCa-2 cells, 10 ng/mL EGF for 10 min, read-out: p-ERK IC50 (MIA PaCa-2)
Description: as §2
Sixteen hours prior to compound treatment, MIA PaCa-2 or A549 cells were seeded in 96-well cell culture plates at a density of 25,000 cells/well and incubated at 37° C., 5% CO2. A compound dose-response titration was diluted in growth media, added to appropriate wells of a cell culture plate, and then incubated at 37° C., 5% CO2 for 2 hours. […] Phosphorylation of ERK1/2 in compound-treated lysates was assayed using Phospho-ERK1/2 Whole Cell Lysate kits (Meso Scale Discovery K151DWD) according to the manufacturer's protocol. Assay plates were read on a Meso Scale Discovery Sector Imager 6000, and data were analyzed using a 4-parameter logistic model to calculate IC50 values.

T1 sequence (P01116 1-169 isoform P01116-2 G12C/C118A): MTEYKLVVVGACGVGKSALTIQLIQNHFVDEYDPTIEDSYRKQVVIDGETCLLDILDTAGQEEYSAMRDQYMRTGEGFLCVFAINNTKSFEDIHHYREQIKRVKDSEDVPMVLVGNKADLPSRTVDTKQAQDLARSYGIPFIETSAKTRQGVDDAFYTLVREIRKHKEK

SMILES | Coupled exchange IC50 [1] [nM] | IC50 [2] [nM] | IC50 [3] [nM] | IC50 [4] [nM]
C=CC(=O)N1CCN(c2nc(=O)n(-c3ccccc3C(C)C)c3cc(-c4c(O)cccc4F)c(Cl)cc23)[C@@H](C)C1 [Example 8-3-1, 6-chloro-7-(2-fluoro-6-hydroxy-phenyl)-4-((2S)-2-methyl-4-(2-propenoyl)-1-piperazinyl)-1-(2-(2-propanyl)-phenyl)-2(1H)-quinazolinone] | 282 |  |  | 
C=CC(=O)N1CCN(c2snc3nc(-c4cc(OC)cc5ccccc45)c(Cl)cc23)C(C)C1 (racemic) [Example 2-4, 1-(4-(5-chloro-6-(3-methoxy-1-naphthalenyl)[1,2]thiazolo[3,4-b]pyridin-3-yl)-3-methyl-1-piperazinyl)-2-propen-1-one] | >250000 |  |  | 
C=CC(=O)N1CCN(c2snc3c(F)c(-c4cc(O)cc5ccccc45)c(Cl)cc23)[C@@H](C)C1 [Example 1-19-1, 1-((3S)-4-(5-chloro-7-fluoro-6-(3-hydroxy-1-naphthalenyl)-2,1-benzothiazol-3-yl)-3-methyl-1-piperazinyl)-2-propen-1-one] | 115 |  |  | 
C=CC(=O)N1CCN(c2snc3c(F)c(-c4cc(O)cc5ccccc45)c(Cl)cc23)C(CF)C1 (racemic) [Example 7-2, 1-(4-(5-chloro-7-fluoro-6-(3-hydroxy-1-naphthalenyl)-2,1-benzothiazol-3-yl)-3-(fluoromethyl)-1-piperazinyl)-2-propen-1-one] | 180 | > 100000 |  | 
C=CC(=O)N1CCN(c2snc3c(F)c(-c4cc(O)cc5ccccc45)c(Cl)cc23)CC1CO (racemic) [Example 1-16, 1-(4-(5-chloro-7-fluoro-6-(3-hydroxy-1-naphthalenyl)-2,1-benzothiazol-3-yl)-2-(hydroxymethyl)-1-piperazinyl)-2-propen-1-one] | 492 | > 100000 |  | 
C=CC(=O)N1CCN(c2snc3c(F)c(-c4c(C)ccc5[nH]ncc45)c(Cl)cc23)C(C(F)F)C1 (racemic) [Example 2-8, 1-(4-(5-chloro-7-fluoro-6-(5-methyl-1H-indazol-4-yl)-2,1-benzothiazol-3-yl)-3-(difluoromethyl)-1-piperazinyl)-2-propen-1-one] | 361 | > 100000 |  | 
C=CC(=O)N1CCN(c2nc(=O)n(-c3c(C)cccc3C(C)C)c3nc(-c4c(O)cccc4F)c(Cl)cc23)[C@@H](C)C1 [Example 39-2, 6-chloro-7-(2-fluoro-6-hydroxyphenyl)-1-(2-methyl-6-(2-propanyl)phenyl)-4-((2S)-2-methyl-4-(2-propenoyl)-1-piperazinyl)pyrido-[2,3-d]pyrimidin-2(1H)-one] |  |  | 222 | 195
C=CC(=O)N1CCN(c2nc(=O)n(-c3ccccc3C(C)(C)C)c3nc(-c4c(O)cccc4F)c(Cl)cc23)[C@@H](C)C1 [Example 49, 6-Chloro-7-(2-fluoro-6-hydroxyphenyl)-1-(2-(2-methyl-2-propanyl)phenyl)-4-((2S)-2-methyl-4-(2-propenoyl)-1-piperazinyl)pyrido[2,3-d]pyrimidin-2(1H)-one] |  |  | 177 | 154
C=CC(=O)N1CCN(c2nc(=O)n(-c3ccccc3C(C)C)c3cc(-c4c(O)cccc4F)c(Cl)cc23)[C@@H](C)C1 [Example 8-3, 6-chloro-7-(2-fluoro-6-hydroxyphenyl)-4-((2S)-2-methyl-4-(2-propenoyl)-1-piperazinyl)-1-(2-(2-propanyl)phenyl)-2(1H)-quinazolinone] | 283 |  |  | 
C=CC(=O)N1CCN(c2nc(=O)n(-c3ccccc3C(C)(C)C)c3nc(-c4c(O)cccc4F)c(Cl)cc23)[C@@H](C)C1 (single isomer, unassigned) [Example 49-2] |  |  | 117 | 51

Second part, the compound after the results:

Coupled exchange IC50 [1] [nM] | IC50 [2] [nM] | IC50 [3] [nM] | IC50 [4] [nM] | SMILES
760 |  |  |  | C=C(CBr)C(=O)N1CCN(c2snc3c(F)c(-c4cc(O)cc5ccccc45)c(Cl)cc23)CC1 (single isomer, unassigned) [Example 18-2, 2-(bromomethyl)-1-(4-(5-chloro-7-fluoro-6-(3-hydroxy-1-naphthalenyl)-2,1-benzothiazol-3-yl)-1-piperazinyl)-2-propen-1-one]
340 |  |  |  | C=CC(=O)N1CCN(c2nc(=O)n(-c3ccccc3C(C)C)c3cc(-c4c(O)cccc4F)c(Cl)cc23)[C@@H](C)C1 (single isomer, unassigned) [Example 8-3-2]
 |  | 63 | 29 | C=CC(=O)N1CCN(c2nc(=O)n(-c3c(C)ccnc3C(C)C)c3nc(-c4ccccc4F)c(Cl)cc23)[C@@H](C)C1 [Example 40, 6-Chloro-7-(2-fluorophenyl)-1-(4-methyl-2-(2-propanyl)-3-pyridinyl)-4-((2S)-2-methyl-4-(2-propenoyl)-1-piperazinyl)pyrido[2,3-d]pyrimidin-2(1H)-one]
 |  | 125 | 71 | C=CC(=O)N1CCN(c2nc(=O)n(-c3c(C)cnn3C(C)C)c3nc(-c4ccccc4F)c(Cl)cc23)[C@@H](C)C1 [Example 53, 6-Chloro-7-(2-fluorophenyl)-1-(4-methyl-1-(2-propanyl)-1H-pyrazol-5-yl)-4-((2S)-2-methyl-4-(2-propenoyl)-1-piperazinyl)pyrido[2,3-d]pyrimidin-2(1H)-one]
24600 |  |  |  | C=C(CO)C(=O)N1CCN(c2snc3c(F)c(-c4cc(O)cc5ccccc45)c(Cl)cc23)CC1 (single isomer, unassigned) [Example 18-3, 1-(4-(5-chloro-7-fluoro-6-(3-hydroxy-1-naphthalenyl)-2,1-benzothiazol-3-yl)-1-piperazinyl)-2-(hydroxymethyl)-2-propen-1-one]
 |  | 335 | 362 | C=CC(=O)N1CCN(c2nc(=O)n(-c3c(C)ccnc3C3CC3)c3nc(-c4c(O)cccc4F)c(F)cc23)[C@@H](C)C1 [Example 42, 1-(2-Cyclopropyl-4-methyl-3-pyridinyl)-6-fluoro-7-(2-fluoro-6-hydroxyphenyl)-4-((2S)-2-methyl-4-(2-propenoyl)-1-piperazinyl)pyrido[2,3-d]pyrimidin-2(1H)-one]
1280 |  |  |  | C=CC(=O)N1CCN(c2nnc(-c3ccccc3C(C)C)c3cc(-c4c(O)cccc4F)c(C)nc23)CC1 [Example 27, 1-(4-(3-(2-Fluoro-6-hydroxyphenyl)-2-methyl-5-(2-(2-propanyl)phenyl)pyrido[2,3-d]pyridazin-8-yl)-1-piperazinyl)-2-propen-1-one]
 |  | 170 | 126 | C=CC(=O)N1CCN(c2nc(=O)n(-c3c(C)ccnc3CC)c3nc(-c4ccccc4F)c(Cl)cc23)[C@@H](C)C1 [Example 46-1, 6-chloro-1-(2-ethyl-4-methyl-3-pyridinyl)-7-(2-fluorophenyl)-4-((2S)-2-methyl-4-(2-propenoyl)-1-piperazinyl)pyrido-[2,3-d]pyrimidin-2(1H)-one]
 |  | 597 | 321 | C=CC(=O)N1CCN(c2nc(=O)n(-c3c(C)ccnc3C(C)C)c3nc(-c4ccccc4F)c(Cl)cc23)[C@@H](C)C1 [Example 40-2, 6-chloro-7-(2-fluoro-phenyl)-1-(4-methyl-2-(2-propanyl)-3-pyridinyl)-4-((2S)-2-methyl-4-(2-propenoyl)-1-piperazinyl)pyrido-[2,3-d]pyrimidin-2(1H)-one]
 |  | 33 | 25 | C=CC(=O)N1CCN(c2nc(=O)n(-c3c(C)ccnc3C3CC3)c3nc(-c4c(O)cccc4F)c(Cl)cc23)[C@@H](C)C1 [Example 44-1]
